The text below walks through data of a melting point compilation (Tetko et al.; mined from patent text by program, amines drawn as free bases though some values may be those of a salt).

Some results are limits rather than exact numbers.

In turn, `COC(=O)C1CC(C#N)(c2cccc3ccccc23)CCC1=O` (stereo not given) registered a melting point of 166 to 168 °C.

As for `O=c1c2c(n(-c3ccccc3)c3ncccc13)SCC2`, the melting point fell in the range of 260 to 261 °C.

As to `Cc1ccc(NC(=O)NCC(=O)N(CC(=O)OC(C)(C)C)c2ccccc2C(=O)c2ccccc2)cc1`, the melting point is 182 to 183 °C.

`NC(=O)C1CCN(C(=O)CNC(=O)CN2CCCC2=O)CC1` came in with a melting point of 217 to 219 °C.

Consider `c1ccc(C(c2ccc3[nH]c(-c4ccccn4)nc3c2)n2ccnc2)cc1` (stereo not given), for which the melting point is 123 °C.

Regarding `CC(C)(C)OC(=O)Nc1ccc(OCc2ccccc2)c(C(=O)O)c1`, the melting point lay in the range of 136 to 139 °C.

Regarding `NC(=O)N1C(=O)C(=C(OC(=O)C=CC(=O)OCCCCc2ccccc2)c2cccs2)c2cc(F)c(Cl)cc21`, the melting point was in the range of 159 to 161 °C.

Compound `C#CCCN1C(=O)c2ccccc2C1=O` showed a melting point of 137 to 139 °C.

Consider `CS(=O)(=O)c1ccc(-c2sc(Cc3ccccc3)nc2-c2ccc(F)cc2)cc1`, for which the melting point was in the range of 117 to 118 °C.

For the compound `CCOC(=O)C1=Cc2cc(C#N)ccc2NC1C(F)(F)F` (stereo not given), the melting point is 211 to 212 °C.

In turn, `COCC(=O)Nc1cc(C#N)cc(NC(=O)COC)c1Cl` had a melting point of 173 to 174 °C.

Take `O=[N+]([O-])c1ccc(F)cc1Br`: the melting point is 42 °C.

Regarding `Oc1noc2ccc(F)cc12`, the melting point lay within 201 to 203 °C.

The compound `O=C(CCCCCl)c1cccc2cc3c(C(=O)CCCCCl)cccc3cc12` returned a melting point of 146 to 148 °C.

Turning to `COc1ccc2c(c1)C(=NO)CCO2`, the melting point was 120 to 121 °C.

`Cc1[nH]n(C(C)(C)C)c2nc(Cc3ccccc3)nc(=O)c1-2` yielded a melting point of 196 to 197 °C.

Regarding `CCCCC(=O)OCC1OC(n2cnc3c(OC)nc(N)nc32)C(O)C1O` (stereo not given), the melting point was found to be 105 °C.

Compound `O=C1CCC(N2C(=O)c3ccccc3C2=S)C(=O)N1` (stereo not given) registered a melting point of 255 °C.

Regarding `CNS(=O)(=O)c1ccccc1Nc1nc(Nc2ccc3c(c2)CCCC(=O)N3CC(=O)OC)ncc1Cl`, the melting point lay within 237 to 239 °C.

With `C=Cc1cc(CNC(=O)NCc2ccc(C(C)(C)C)cc2)cc(Cl)c1NS(C)(=O)=O`, the melting point fell in the range of 165 to 167 °C.

`CN(SC(C)(C)C(=O)c1ccccc1)C(=O)ON=C1SC(C)(C)C(=O)N1C` gave a melting point of 98 to 100 °C.

For the compound `Clc1ccc(-c2nc3n(c2Br)CCS3)c(Cl)c1`, the melting point is 200 to 202 °C.

`Nc1ccc(S(=O)(=O)Nc2ccccc2C(=O)NCCCn2ccnc2)cc1` showed a melting point of 171 to 175 °C.

Take `CC1(C)CC(O)c2cc(Br)ccc2O1` (stereo not given): the melting point fell in the range of 97 to 99 °C.

The compound `N=C(Nc1ccc(Cl)cc1)Nc1ncccc1OCc1c(F)cccc1Cl` returned a melting point of 168 to 170 °C.

Turning to `O=[N+]([O-])c1ccc(SNc2nccs2)c(C(Cl)(Cl)Cl)c1`, the melting point turned out to be 165 °C.

As for `C=C1N(c2ccc(Cl)cc2)C(=O)OC12CCN(C(=O)N1CCN(CCO)CC1)CC2`, the melting point was 185 to 186 °C.

For `O=C(O)c1cc2cc(Cl)ccc2nc1N[C@@H](Cc1ccc(Cl)cc1)C(=O)O`, the melting point was in the range of 163 to 168 °C.

For the compound `COc1cc(C)c(NCCO)cc1N`, the melting point came out at 148 °C.

Consider `CCOC(=O)c1cnc(N2CCC[C@H]2CO)nc1NCc1ccc(OC)c(Cl)c1`, for which the melting point lay within 88 to 90 °C.

In turn, `CONC(=O)C(Cc1ccccc1)N(C)C(=O)C1CCCCC1C(=O)O` (stereo not given) gave a melting point of 168 to 171 °C.

Compound `CCN(C(=O)C(C)CSC)c1sc(-c2cccnc2)nc1Cl` (stereo not given) returned a melting point of 79 to 81 °C.

Regarding `CCCc1nc2c(N)nc3cc(OCCOCCNS(C)(=O)=O)ccc3c2s1`, the melting point lay in the range of 134 to 137 °C.

`CC(C)c1cc(S(=O)(=O)c2c(Br)cc(CC(N)C(=O)O)cc2Br)ccc1O` (stereo not given) displayed a melting point of 210 to 217 °C.

Take `O=C(c1ccccc1)c1cc2c(cc1O)C(C(=O)O)CC2` (stereo not given): the melting point lay in the range of 185 to 187 °C.

For the compound `CC(C)(/C=C/I)C(=O)Nc1ccc(Cl)cc1`, the melting point was in the range of 145 to 146 °C.

Regarding `Cc1nnc(-c2ccc3occ(-c4ccc(S(C)=O)c(F)c4)c3c2)o1` (stereo not given), the melting point is 168 to 169 °C.

As to `O=C(NO)C1(S(=O)(=O)c2ccc(OCc3ccccc3)cc2)CCN(Cc2ccccc2)CC1`, the melting point was 89 °C.

`CCCc1sc(-c2ccccc2)nc1OC(=O)NC(C)(C)C` returned a melting point of 97 to 98 °C.

As to `N=C(N)NC[C@H]1CC[C@H](C(=O)O)CC1`, the melting point lay within 206 to 208 °C.

For the compound `O=C(O)c1ccc(NC(=O)C(CC2CCCC2)c2ccc(-c3cccc4ccccc34)cc2)nc1` (stereo not given), the melting point fell in the range of 155 to 158 °C.

Take `COc1ccc(C=NO)c(OC)c1C`: the melting point lay in the range of 110 to 111 °C.

For the compound `O=C(CNc1ccc2[nH]c(=O)oc2c1)N1CCC(Oc2ccc(Cl)cc2)CC1`, the melting point was 180 to 183 °C.

As to `COC(=O)c1ccc2c(ccn2C)c1`, the melting point fell in the range of 108 to 110 °C.

As to `CC(C)c1nc(-c2ccccc2)c(-c2ccccc2)c(-c2ccc(F)cc2)c1CO`, the melting point lay within 169 to 171 °C.

Compound `CC(C(N)=O)c1ccc(Oc2ccc(F)cc2F)cc1` (stereo not given) returned a melting point of 107 to 110 °C.

Compound `COc1ccc(C(=O)N2CCc3cc(OCc4ccccc4)c(OC)cc3C2=O)cc1OC` gave a melting point of 200 to 201 °C.

`CC(=O)Oc1ccc2c(c1)COc1cc3cc(OC(C)=O)ccc3cc1-2` yielded a melting point of 194 to 195 °C.

`CC1(C)N[C@H](Cc2ccc(Br)cc2)[C@@H]2C(=O)N(Cc3ccccc3)C(=O)[C@@H]21` (racemic) showed a melting point of 142 to 143 °C.

Regarding `COc1ccc(COC(=O)c2ncn3c2[C@@H]2CCCN2C(=O)c2c(Cl)cccc2-3)cc1`, the melting point fell in the range of 185 to 186 °C.

The compound `CC(C)Cn1c(CN)nc2c(N)nc3ccccc3c21` registered a melting point of 287 to 291 °C.

Consider `O=C(NCCN1CC=C(n2c(=O)[nH]c3ccccc32)CC1)c1ccc(F)cc1`, for which the melting point amounted to 203 °C.

Turning to `N#CC(=Cc1cc(O)c(O)c(C#N)c1)C(=O)Nc1cccc(Cl)c1`, the melting point fell in the range of 236 to 240 °C.

Consider `OC(CCN1CC=C(c2ccccc2)CC1)c1cccc2ccccc12` (stereo not given), for which the melting point was 93 to 94 °C.

Regarding `CCCC(NC(=O)Nc1ccc(Cl)cc1)P(=O)(c1ccccc1)c1ccccc1` (stereo not given), the melting point was 275 to 278 °C.

As to `CCc1ccccc1NS(=O)(=O)c1ccc(N2CCNC2=O)cc1`, the melting point lay within 171 to 172 °C.

Turning to `COc1ccc(CCNCC(O)c2ccc(C)cc2)cc1OC` (stereo not given), the melting point was in the range of 99 to 100 °C.

Regarding `Cn1c(=O)c2[nH]c(/C=C/c3ccc4c(c3)OCO4)nc2n(C)c1=O`, the melting point is more than 275 °C.

`FC(F)(F)c1cc(Nc2nc3ccccc3o2)ccc1Br` came in with a melting point of 211 to 212 °C.

For `C=CCOc1ccc(OC[C@H]2CC[C@H](C=C)CC2)c(F)c1F`, the melting point came to 27.3 °C.

The compound `Cc1nc2sccn2c1C1=NNC(=O)CN1` had a melting point of 270 to 273 °C.

On to `Cc1c(C(=O)NC2CCN(Cc3ccccc3)CC2)c2cc(F)ccc2n1C`, for which the melting point was 169 to 172 °C.

In the case of `CCc1ccc(C2C(=O)Oc3ccccc32)cc1` (stereo not given), the melting point fell in the range of 127 to 132 °C.

Compound `CC(C)(C)C(=O)Nc1ccc(Cl)cc1` showed a melting point of 149 to 150 °C.

For the compound `Cn1cc(C(=O)C(C)(C)C)c(=O)c(-c2cccc(C(F)(F)F)c2)c1`, the melting point lay in the range of 86 to 88 °C.

Consider `O=c1[nH]nc2n1C=Cc1cc(Cl)ccc1C2`, for which the melting point lay within 281 to 283 °C.

`O=C1c2cc(O)ccc2OCC1Cc1cccnc1` (stereo not given): the melting point was in the range of 163 to 166 °C.

In turn, `CCOC(=O)C1=Cc2cc(-c3ccc(S(C)(=O)=O)cc3)ccc2OCC1` had a melting point of 150 to 153 °C.

`CNC(=O)c1ccccc1C(O)(c1ccc(Cl)cc1)c1ccccc1CN(C)C` (stereo not given): the melting point is 154 to 156 °C.

The compound `C#CC(C)(C)c1cc(NC(=O)NC)no1` gave a melting point of 99 to 100 °C.

On to `COc1cc(C=C2COCC3=C2N=C2SCCN2C3c2cc(OC)c(OC)c(OC)c2)cc(OC)c1OC` (stereo not given), for which the melting point is 153 to 155 °C.

Take `O=C(Nc1ccc(Br)c(C(F)(F)F)c1)c1ccccc1NCc1ccncc1`: the melting point lay within 123 to 124 °C.

The compound `Cc1ccc(S(=O)(=O)OC[C@H]2CC[C@H](C#N)CC2)cc1` registered a melting point of 84 to 85 °C.

Turning to `CC1(C)C(=O)Oc2ccc3ccc(Cn4cnnc4)cc3c21`, the melting point is 256 to 257 °C.

`O=C1NCCC[C@@H]1NS(=O)(=O)c1cc(F)ccc1F` gave a melting point of 183 to 185 °C.

`O=C1c2c(O)cccc2OC12CC2` came in with a melting point of 100 to 109 °C.

For the compound `CS(=O)(=O)c1ccc(-c2cc3n(c2-c2ccc(F)cc2)CCC3)cc1`, the melting point is 154 °C.

For `CCCCCCCCCCCCC(=O)CC(O)Cc1ccccc1` (stereo not given), the melting point fell in the range of 40 to 43 °C.

Take `Cn1cc(-c2ncc(-c3ccc4cc(OC(Cc5ccccc5)C(=O)O)ccc4c3)o2)c2ccccc21` (stereo not given): the melting point was in the range of 149 to 151 °C.

The compound `CCCCCCCCC1C=CC(Oc2ccc(C(=O)O)o2)=C2N=C3CCCC(C)(C)C3=C21` (stereo not given) returned a melting point of 118 to 120 °C.

`CC(C)(C)OC(=O)[C@H]1CC[C@H](c2ccccc2)N1C(=O)CNC(=O)Nc1cccc(C(=O)O)c1` (racemic) yielded a melting point of 236 °C.

`CN1C(=O)N2CCSC2(C)C1=O` (stereo not given): the melting point lay within 67 to 68 °C.

`CCSCC(=C1NCCCS1)[N+](=O)[O-]` came in with a melting point of 69.5 to 71 °C.

Consider `O=S(=O)(CC(F)(F)F)c1nc2cc(Cl)ccc2[nH]1`, for which the melting point was 161 to 164 °C.

`Cc1ccc(N)cc1Nc1ncc(-c2ccncc2)o1` came in with a melting point of 158 °C.

On to `Cc1cccc(C)c1N(CCCC(=O)N[C@@H](C)C(=O)O)C(=O)c1ccc(Cl)cc1`, for which the melting point was 159 to 161 °C.

For the compound `Cc1cc(OCc2ccc(-c3ccccc3-c3nnn[nH]3)cc2)c(C(=O)O)c(C)n1`, the melting point stood at 237 °C.

In turn, `O=C(O)c1cn(-c2ccc(F)c([N+](=O)[O-])c2)c2nc(Cl)c(F)cc2c1=O` yielded a melting point of more than 270 °C.

`CCOC(=O)c1ccccc1Nc1c([N+](=O)[O-])cc(C(F)(F)F)cc1[N+](=O)[O-]` returned a melting point of 152 to 154 °C.

As to `N#Cc1ccccc1Cn1cc(-c2ccnc(N)c2)n(-c2ccc(F)cc2)c1=O`, the melting point fell in the range of 182 to 183 °C.

For orientation: melting point means the temperature of the solid-liquid transition.
